# Reference: patent US20250034084A1, “COMPOSITIONS AND METHODS FOR PREVENTING OR TREATING MYCOSIS” (AMTIXBIO CO., LTD., priority 2016, published 2025)
# Tests used:
# Test in all cases: Antifungal activity assay (MIC), NCCLS method
# Format in all cases: cell-based
# Details in all cases: RPMI 1640 medium
# [1] = tested on: Candida albicans SC5314 (ATCC)
# Text: (§1) In order to measure the minimum inhibitory concentration (MIC), strains Candida albicans SC5314 (ATCC), Candida glabrata BG2 (ATCC), and Cryptococcus neoformans var. grubii […] were used. All the strains used in the test examples of the present invention were purchased from Korean Culture Center of Microorganisms (KCCM) and ATCC, and used. […] As a control group, amphotericin B and fluconazole, which are known to have excellent antifungal inhibitory activity with a problem of human toxicity, were used. Specifically, in order to prepare a medium first, 8.4 g of RPMI-1640 powder (Sigma; […]-1L) was added to 900 ml of distilled water. Next, 34.5 g of MOPS was added thereto, to bring the final concentration to 0.165 M. Then, 100 ml of 20% glucose was added thereto, and then the pH of the resultant was adjusted to 7 using NaOH. Next, after performing filtration with a filter, the filtrate was stored in a refrigeration condition at 4° C. for use in the next experiment. The experimental method and procedure for the MIC assay were as follows: […] (c) in a case of Aspergillus fumigatus, a diluent was prepared at a concentration of 1×10^5 conidia/ml; (d) a 96-well plate was used and 100 μl of the solution was added to each well, so that 2 μl of diluted drug was prepared; (e) 200 μl of the solution was added to a well into which the highest concentration of drug was to be added, and dilution was performed by serial dilution; (f) after performing static culture for 48 hours at 37° C., a degree of growth was measured at OD600 and a comparison was made.
# [2] = tested on: Candida glabrata BG2 (ATCC)
# Text: as §1
# [3] = tested on: Cryptococcus neoformans var. grubii H99 (ATCC)
# Text: as §1
MIC C. albicans [1],MIC C. glabrata [2],MIC C. neoformans [3],MIC C. glabrata ([2]; hydrochloride),MIC C. neoformans ([3]; hydrochloride),Compound
64 µg/mL,64 µg/mL,16 µg/mL,–,–,"CCC(N)C(=O)NCc1ccc(OCc2cccc(Cl)c2)cc1.Cl (racemic) [Compound 23, (R)/(S)-1-((4-((3-(chlorobenzyl)oxy)benzyl)amino)-1-oxobutane-2-aminium chloride]"
–,–,8 µg/mL,–,–,"CCC(C(=O)NCc1ccc(OCc2ccc(C(F)(F)F)cc2)cc1)N(C)C (racemic) [Compound 59, (R)/(S)-2-(dimethylamino)-N-(4-((4-trifluoromethyl)benzyl)oxy)benzyl)butanamide]"
64 µg/mL,–,–,32 µg/mL,16 µg/mL,"Cl.O=C(NCc1ccc(OCc2ccc(C(F)(F)F)cc2)cc1)C1CCCN1 (racemic) [Compound 40, (R)/(S)-N-(4-((4-(trifluoromethyl)benzyl)oxy)benzyl)pyrrolidine-2-carboxamide hydrochloride]"
16 µg/mL,16 µg/mL,4 µg/mL,–,–,"CCC(NC)C(=O)NCc1ccc(OCc2ccc(C(F)(F)F)cc2)cc1 (racemic) [Compound 27, (R)/(S)-2-(methylamino)-N-(4-((4-trifluoromethyl)benzyl)oxy)benzyl)butanamide]"
32 µg/mL,32 µg/mL,8 µg/mL,–,–,"CCC(NC)C(=O)NCc1ccc(OCc2ccc(Cl)cc2)cc1 (racemic) [Compound 29, (R)/(S)-N-(4-((4-chlorobenzyl)oxy)benzyl)-2-(methylamino)butanamide]"
128 µg/mL,128 µg/mL,16 µg/mL,–,–,"CN1CCCC1C(=O)NCc1ccc(OCc2cccc(F)c2)cc1 (racemic) [Compound 42, (R)/(s)-1-methyl-N-(4-((3-fluorobenzyl)oxy)benzyl)pyrrolidine-2-carboxamide]"
–,–,8 µg/mL,–,–,"CCC(N)C(=O)NCc1ccc(OCc2ccc(Cl)c(Cl)c2)cc1.Cl (racemic) [Compound 57, (R)/(S)-1-((4-(3,4-dichlorobenzyl)oxy)benzyl)amino)-1-oxobutane-2-aminium chloride]"
128 µg/mL,128 µg/mL,8 µg/mL,–,–,"CN1CCC(C(=O)NCc2ccc(OCc3cccc(F)c3)cc2)C1 (racemic) [Compound 52, (R)/(s)-1-methyl-N-(4-((3-fluorobenzyl)oxy)benzyl)pyrrolidine-3-carboxamide]"
–,–,–,–,128 µg/mL,"Cl.O=C(NCc1ccc(OCc2cccc(F)c2)cc1)C1CCCN1 (racemic) [Compound 38, (R)/(S)-N-(4-((3-fluorobenzyl)oxy)benzyl)pyrrolidine-2-carboxamide hydrochloride]"
–,–,4 µg/mL,–,–,"CCCC(NCC)C(=O)NCc1ccc(OCc2ccc(C(F)(F)F)cc2)cc1 (racemic) [Compound 64, (R)/(S)-2-(ethylamino)-N-(4-((4-(trifluoromethyl)benzyl)oxy)benzyl)pentanamide]"
–,–,4 µg/mL,–,–,"CCNC(CC)C(=O)NCc1ccc(OCc2ccc(Cl)c(Cl)c2)cc1 (racemic) [Compound 63, (R)/(S)-N-(4-((3,4-dichlorobenzyl)oxy)benzyl-2-(ethylamino)butanamide]"
64 µg/mL,128 µg/mL,8 µg/mL,–,–,"Cl.O=C(NCc1ccc(OCc2ccc(Cl)cc2)cc1)C1CCCN1 (racemic) [Compound 51, (R)/(S)-2-((4-(4-chlorobenzyl)oxy)benzyl) carbamoyl)pyrrolidi-1-nium chloride]"
64 µg/mL,64 µg/mL,16 µg/mL,–,–,"CCC(N)C(=O)NCc1ccc(OCc2cccc(C(F)(F)F)c2)cc1.Cl (racemic) [Compound 21, (R)/(S)-1-oxo-1-((4-((3-(trifluoromethyl)benzyl)oxy)benzyl)amino)butane-2-aminium chloride]"
–,–,4 µg/mL,–,–,"CCCC(N)C(=O)NCc1ccc(OCc2ccc(Cl)c(Cl)c2)cc1.Cl (racemic) [Compound 58, (R)/(S)-1-((4-((3,4-dichlorobenzyl)oxy)benzyl)amino)-1-oxopentane-2-aminium chloride]"
>128 µg/mL,>128 µg/mL,32 µg/mL,–,–,"Cl.O=C(NCc1ccc(OCc2cccc(F)c2)cc1)C1CCCN1 (racemic) [Compound 49, (R)/(S)-2-((4-((3-fluorobenzyl)oxy)benzyl)carbamoyl)pyrrolidi-1-nium chloride]"
>128 µg/mL,>128 µg/mL,64 µg/mL,–,–,"CCC(N)C(=O)NCc1ccc(OCc2ccccc2F)cc1.Cl (racemic) [Compound 17, (R)/(S)-1-((4-((2-(fluorobenzyl)oxy)benzyl)amino)-1-oxobutane-2-aminum chloride]"
8 µg/mL,8 µg/mL,2 µg/mL,–,–,"CCCC(NC)C(=O)NCc1ccc(OCc2ccc(C(F)(F)F)cc2)cc1 (racemic) [Compound 30, (R)/(S)-2-(methylamino)-N-(4-(4-trifluoromethyl)benzyl)oxy)benzyl)pentanamide]"
>128 µg/mL,>128 µg/mL,128 µg/mL,–,–,"Cl.O=C(NCc1ccc(OCc2ccc(F)cc2)cc1)C1CCCN1 (racemic) [Compound 39, (R)/(S)-N-(4-((4-fluorobenzyl)oxy)benzyl)pyrrolidine-2-carboxamide hydrochloride]"
64 µg/mL,64 µg/mL,8 µg/mL,–,–,"CN1CCC(C(=O)NCc2ccc(OCc3ccc(Cl)cc3)cc2)C1 (racemic) [Compound 54, (R)/(s)-1-methyl-N-(4-((4-chlorobenzyl)oxy)benzyl)pyrrolidine-3-carboxamide]"
–,–,8 µg/mL,–,–,"CCNC(CC)C(=O)NCc1ccc(OCc2ccc(C(F)(F)F)cc2)cc1 (racemic) [Compound 62, (R)/(S)-2-(ethylamino)-N-(4-((4-trifluoromethyl)benzyl)oxy)benzyl)butanamide]"
64 µg/mL,64 µg/mL,8 µg/mL,–,–,"CN1CCC(C(=O)NCc2ccc(OCc3ccc(C(F)(F)F)cc3)cc2)C1 (racemic) [Compound 53, (R)/(S)-1-methyl-N-(4-((4-(trifluoromethyl)benzyl)oxy)benzyl)pyrrolidine-3-carboxamide]"
64 µg/mL,128 µg/mL,8 µg/mL,–,–,"Cl.O=C(NCc1ccc(OCc2ccc(C(F)(F)F)cc2)cc1)C1CCCN1 (racemic) [Compound 50, (R)/(S)-2-((4-((4-(trifluoromethyl)benzyl)oxy)benzyl)carbamoyl)pyrrolidi-1-nium chloride]"
16 µg/mL,16 µg/mL,4 µg/mL,–,–,"CCCC(NC)C(=O)NCc1ccc(OCc2ccc(C(F)(F)F)cc2)cc1 (racemic) [Compound 31, (R)/(S)-2-(methylamino)-N-(4-((4-trifluoromethyl)benzyl)oxy)benzyl)pentanamide]"
–,–,4 µg/mL,–,–,"CCC(C(=O)NCc1ccc(OCc2ccc(C(F)(F)F)cc2)cc1)N(CC)CC (racemic) [Compound 66, (R)/(S)-2-(diethylamino)-N-(4-((4-(trifluoromethyl)benzyl)oxy)benzyl)butanamide]"
–,–,2 µg/mL,–,–,"CCC(C(=O)NCc1ccc(OCc2ccc(Cl)c(Cl)c2)cc1)N(CC)CC (racemic) [Compound 67, (R)/(S)-N-(4-((3,4-dichlorobenzyl)oxy)benzyl-2-(diethylamino)butanamide]"
–,–,2 µg/mL,–,–,"CCCC(C(=O)NCc1ccc(OCc2ccc(C(F)(F)F)cc2)cc1)N(CC)CC (racemic) [Compound 68, (R)/(S)-2-(diethylamino)-N-(4-((4-(trifluoromethyl)benzyl)oxy)benzyl)pentanamide]"
–,–,8 µg/mL,–,–,"CCC(C(=O)NCc1ccc(OCc2ccc(Cl)c(Cl)c2)cc1)N(C)C (racemic) [Compound 60, (R)/(S)-N-(4-((3,4-dichlorobenzyl)oxy)benzyl)-2-(dimethylamino)butanamide]"
–,–,2 µg/mL,–,–,"CCCC(NCC)C(=O)NCc1ccc(OCc2ccc(Cl)c(Cl)c2)cc1 (racemic) [Compound 65, (R)/(S)-N-(4-((3,4-dichlorobenzyl)oxy)benzyl-2-(ethylamino)pentanamide]"
–,–,2 µg/mL,–,–,"CCC(C(=O)NCc1ccc(OCc2ccc(Cl)c(Cl)c2)cc1)N(C)C (racemic) [Compound 61, (R)/(S)-N-(4-((3,4-dichlorobenzyl)oxy)benzyl)-2-(dimethylamino)butanamide]"
–,–,1 µg/mL,–,–,"CCCC(C(=O)NCc1ccc(OCc2ccc(Cl)c(Cl)c2)cc1)N(CC)CC (racemic) [Compound 69, (R)/(S)-N-(4-((3,4-dichlorobenzyl)oxy)benzyl-2-(diethylamino)pentanamide]"
